From paper PMC3438169 (PLoS ONE, 2012)
Where a SMILES comes first, the peptide text is derived from it. The star is where a group is joined. Cbz = O=C(OCc1ccccc1)*

Legend:
[1] = system: HCT116; test: Cell viability (CellTiter-Glo), HCT116 with siRNA or mEF-G1 variants; type: cell-based, human; conditions: 7 days
Description: (§1) HCT116 (ATCC, CCL-247) and RKO (ATCC, CRL-2577) cell lines were maintained in a humidified incubator at 37°C and 5% CO2 in RPMI1640 supplemented with 10% FBS. Cell viability was determined using the CellTiter-Glo luminescent cell viability assay (Promega). […] Subsequently, 40 µl of CellTiter-Glo reagent was added to each well and luminescence recorded on an Envision plate reader (Perkin Elmer). Each treatment condition was tested in triplicate and compared to an equivalent volume of DMSO as control.
(§2) Non-targeting (NT) or GFM1 siRNA pools were obtained from Dharmacon (ON-TARGETplus SMART pool D-001810 and L-013685). HCT116 and RKO cells were reverse transfected in 6-well plates using RNAiMax (Invitrogen) and 25 nM siRNA. After 2 days, cells were harvested by trypsinization and re-plated into 6-well plates for western blot analysis or into 384-well plates for compound treatments and cell viability determination using CellTiter-Glo as described above.
(§3) The human GFM1 cDNA (encoding mEF-G1, Table 2) was mutagenized in pENTR221 (Invitrogen) using QuikChangeII XL site-directed mutagenesis (Stratagene). The following point mutations were introduced: C1355T (encoding S452L), C1481T (encoding S494F) and T2078A (encoding L693Q). The GFM1 cDNAs were then subcloned into the mammalian expression vector pLenti4/TO/V5 using LR clonase II (Invitrogen) and sequence-verified. The pLenti4 constructs were then co-transfected with a lentiviral plasmid mix (encoding LP1, LP2 and VSV-G) into 293T cells, and viral particles were harvested after 72 h and used to infect HCT116 and RKO cells. Stable cell lines were generated by selection with 400 µg/ml Zeocin and plated into 6-well plates for western blot analysis or into 384-well plates for compound treatments and cell viability determination using CellTiter-Glo as described above.

[2] = system: RKO; test: Cell viability (CellTiter-Glo), RKO with siRNA or mEF-G1 variants; type: cell-based, human; conditions: 7 days
Description: as §1, §2, §3

[3] = system: Cox4-GFP labeled mitochondria; test: Microscopy of mitochondrial morphology (Cox4-GFP); type: cell-based, S. cerevisiae; conditions: Benomyl 3× IC30 (90 µM), 30 minutes
Description: BY4741 cells containing a genomic COX4-GFP fusion where grown to mid-log phase in glucose and ethanol/glycerol media and incubated with the corresponding concentrations of compound for 30 minutes. Aliquots where spotted on microscopy slides and directly imaged on a Zeiss Axiovert 200Mot microscope equipped with a AxioCam MRm digital camera using the Plan-Neofluar 100×, 1.3 oil PH3 objective (Carl Zeiss, Feldbach, Switzerland). A z-stack consisting of 3 images spaced by […] in the filterset 38 (eGFP) channel and a phase-contrast image where acquired. False colors where applied to the GFP images (green) and phase contrast (blue) and the images merged into one plane and scaled to 8-bit. Representative, individual cells where selected and assembled into a panel using Adobe Photoshop (Adobe Systems Inc.).

[4] = system: EF-G in complex with the ribosome; conditions: ref [22], [23], [24]; cited from earlier work
Source text: This may stand in contrast to the characterized inhibitor of EF-G, fusidic acid, which binds at the GDP/GTP binding pocket and interferes with the post translocation release of EF-G bound on the riboso ...

[5] = system: 512 human cancer cell lines; test: Compound correlation analysis across the cell line panel; type: cell-based; conditions: Pearson correlation across 512 cell lines
Description: All cell lines were maintained in humidified incubators at 37°C and 5% CO2 in DMEM or RPMI1640 supplemented with 10% FBS. Cells were seeded into 1536-well plates at a density of 250 cells per well, allowed to adhere for 12–24 hours, then treated for 3 days with pharmacological agents in 8-point dose response (semi-log from 8 µM to 2.5 nM), and cell viability was assessed using CellTiter Glo (Promega). […] Compound correlation analysis was performed by calculating a Pearson correlation for each compound pair (using either IC50 or Amax values) across the 512 cell lines. We required data values for a minimum of 50 cell lines in common to avoid spuriously high correlations.

[6] = system: angiogenesis; conditions: p27-dependent mechanism; ref [6], [7], [8], [9]; cited from earlier work
Source text: (§4) Natural products constitute a major resource for the identification of bioactive molecules. Indeed, most antibacterials in current use are natural products or semisynthetic derivatives thereof. The argyrins are natural peptides produced by myxobacteria and actinomycetes that have an intriguing antibacterial spectrum of activity, [2], [3]. This includes the intrinsically drug resistant organism Pseudomonas aeruginosa, but not other Gram negatives tested, such as Escherichia coli or Salmonella typhimurium, unless the cells are compromised in their outer membrane permeability barrier, p ...

[7] = system: apoptosis; conditions: ref [6], [7], [8], [9]; cited from earlier work
Source text: as §4

[8] = system: proteasome; conditions: ref [6], [7], [8], [9]; cited from earlier work
Source text: as §4

## CC(C)C[C@@H](C=O)NC(=O)[C@H](CC(C)C)NC(=O)[C@H](CC(C)C)NC(=O)OCc1ccccc1 [MG132, reference compound] (Cbz-Leu-Leu-Leu-aldehyde)
[1]; HCT116, GFM1 siRNA
  Sensitivity change on knock down of mEF-G1 (in words): without altering sensitivity
[1]; HCT116, mEF-G1 L693Q
  Sensitivity change on expression of mEF-G1 L693Q (in words): without altering sensitivity
[2]; GFM1 siRNA
  Sensitivity change on knock down of mEF-G1 (in words): without altering sensitivity
[2]; mEF-G1 L693Q
  Sensitivity change on expression of mEF-G1 L693Q (in words): without altering sensitivity

## CCCCNC(=O)n1c(NC(=O)OC)nc2ccccc21 [benomyl, reference compound]
[3]
  Effect on mitochondria (in words): had no effect on mitochondria

## CC(=O)O[C@H]1C[C@@]2(C)[C@@H](C[C@@H](O)[C@H]3[C@@]4(C)CC[C@@H](O)[C@@H](C)[C@@H]4CC[C@@]32C)/C1=C(\CCC=C(C)C)C(=O)O [fusidic acid]
[4]
  Binding to EF-G (in words): binds EF-G in complex with the ribosome

## argyrin A
[5]
  Correlation of IC50 and maximal activity (Amax) profile with argyrin B (in words): strong correlation
[6]
  Angiogenesis (in words): blocks angiogenesis
[7]
  Apoptosis (in words): induces apoptosis
[8]
  Proteasome inhibition (in words): inhibits the proteasome
